Measurements taken from patent US10238756B2, “Lipid nanoparticles and uses thereof” (Tongli Biomedical Co., Ltd., priority 2015, dated 2019).

How the values were obtained:
[1] = system: lymph nodes and vessels in mice; assay: In vivo NIR lymphatic imaging in mice after subcutaneous foot injection; set-up: species or system mouse; conditions: for max NIRF intensity: mean ± SEM (N = 3-4)
Protocol: (§1) In Vivo NIR Lymphatic Imaging in Mice. Mice were kept under pathogen-free conditions, exposed to a 12 h light-dark cycle, and received food ad libitum prior to imaging. All procedures were approved by the University of Washington Institutional Animal Care and Use Committee. Mice were anesthetized with 1.5% isoflurane, shaved to remove fur, and placed in a supine position on a 37° C. heat pad underneath an IVIS Lumina II NIR CCD camera (Perkin Elmer, Waltham, Mass.). Precontrast images were taken to confirm the absence of autofluorescence. Forty microliters of ICG-LNPs or free ICG was injected subcutaneously into the top of both rear feet. Immediately following injections, both feet were placed under gentle even pressure. Images were acquired for up to 120 min prior to euthanasia by cervical dislocation under anesthesia, upon which the skin was surgically opened to perform lymph node imaging.

[2] = system: popliteal and sciatic lymph nodes; assay: In vivo pharmacokinetics of fluorescence intensity in draining lymph nodes detected through skin; conditions: subcutaneous, mouse foot, N = 3
Protocol: as §1

[3] = Storage stability of ICG fluorescence in the dark at 4° C.; format: physicochemical; conditions: for % ICG fluorescence (8 months): stored in the dark at 4° C. for 8 months, % of initial fluorescence intensity, mean ± SD
Protocol: (§2) Fluorescence. Fluorescence measurements were performed on a Victor3 V 1420-040 Multilabel Plate Reader (Perkin-Elmer, Waltham, Mass.) with a tungsten-halogen continuous wave lamp (75 W, spectral range of 320-800 nm) and excitation (769±41 nm) and emission (832±37 nm) filters (Semrock, Rochester, N.Y.) using 100μL of sample in flat bottom, untreated 96-well plates (Grenier Bio-one, Monroe, N.C.).
(§3) Light Exposure and Storage Stability. […] For storage stability (FIG. 12), samples were placed in the dark at 4° C. for up to 313 days. […] The time-dependent decay of ICG fluorescence was analyzed on the basis of an exponential decay model with GraphPad Prism version 6.0 (GraphPad Software, San Diego, Calif.). The data were expressed as t½ (half-life) and k (rate constant).

[4] = Light exposure stability of ICG fluorescence; format: physicochemical
Protocol: as §2, §3

- AUC0-2 hr ([2]; fluorescence intensity in 1st draining lymph node (popliteal LN) through skin): 61.65 ± 34.83 a.u.*min
- Intensitymax ([2]; popliteal LN through skin): 0.66 ± 0.42 a.u.
- k ([2]; popliteal LN through skin): 0.19 ± 0.17 h⁻¹
- half-life ([3]; buffer, stored in the dark at 4° C., exponential decay model, (95% CI)): 28.6 h
- % ICG fluorescence (8 months) [3]: 0.3 +/− 0.2%
- % ICG fluorescence (8 months) ([3]; listed as free ICG): 0.3±0.2%
- k (rate constant) ([3]; stored in the dark at 4° C., exponential decay model): 0.582 day⁻¹
- fluorescence intensity, % of the initial value ([4]; after 6 hours of light exposure, 2.0 μM ICG, overhead fluorescent light): 2.5±0.5%
- half-life at 2 μM ([4]; aqueous solution (free ICG in solution), light exposure, exponential decay model): 2.16 ± 0.3 min
- k ([4]; light exposure, exponential decay model): 19.2 ± 2.7 h⁻¹
Compound: CC1(C)C(/C=C/C=C/C=C/C=C2\N(CCCCS(=O)(=O)O)c3ccc4ccccc4c3C2(C)C)=[N+](CCCCS(=O)(=O)[O-])c2ccc3ccccc3c21 [Free ICG, sodium 2-[7-[3,3-dimethyl-1-(4-sulfonatobutyl)benz[e]indolin-2-ylidene]hepta-1,3,5-trien-1-yl]-3,3-dimethyl-1-(4-sulfonatobutyl)benz]
- No. of nodes detected ([1]; Axillary): 2
- max NIRF intensity ([1]; Axillary LN): 0.8 ± 0.1 10^−5 a.u.
- No. of nodes detected ([1]; Gastric): 1-2
- max NIRF intensity ([1]; Gastric LN): 2.5 ± 1.3 10^−5 a.u.
- No. of nodes detected ([1]; Medial iliac): 1-2
- max NIRF intensity ([1]; Medial iliac LN): 4.1 ± 1.6 10^−5 a.u.
- max NIRF intensity ([1]; Pop afferent vessel): 0.6 ± 0.2 10^−5 a.u.
- max NIRF intensity ([1]; Pop efferent vessel): 0.6 ± 0.1 10^−5 a.u.
- No. of nodes detected ([1]; Popliteal (Pop)): 1
- max NIRF intensity ([1]; Popliteal (Pop) LN): 4.7 ± 2.2 10^−5 a.u.
- No. of nodes detected ([1]; Sciatic): 0
- max NIRF intensity ([1]; Sciatic LN): 0.6 ± 0.1 10^−5 a.u.
- ICG intensity mean of the popliteal lymph node ([1]; image collected below the skin, six minutes, 0.5 nmol of ICG subcutaneously in foot): 37.0
